# In patent US5190741A, “Agents for diagnosing and treating melanomas, aromatic halogenated derivatives usable as such agents and their preparation” (Institut National de la Sante et de la Recherche Medicale …, priority 1989, dated 1993):
# Where two headings read alike, the source gives them in different places.
# Key:
# Type in all cases: in vivo, mouse
# [1] = Tissue distribution in C57 BL6 mice bearing B16; details: mouse, iv, 3 umol/animal
# Procedure: (§1) The study of the tissue distribution of the ^125 I labelled compounds was performed in mice bearing grafted melanomas (cf. autoradiograms above). […] The animals are sacrificed at different time intervals of 1 to 24 hours after the injection. The blood is collected and the principal organs are excised. Aliquots are weighed and the radioactivity of the samples is measured in a […] 1191 counter (analytic tracer). The counting yield for iodine 125 is 60%. The results are expressed: as a percentage of the injected dose bound per g of tissue (% ID/g); in the form of the ratios [formula] This ratio reflects more precisely the selectivity of a molecule for an organ (tables 2, 4, 6, 8, 10 and 12).
# [2] = tested on: B16 murine melanoma; experiment: Tissue distribution in C57 BL6 mice bearing B16; details: mouse, in vivo
# Procedure: as §1
# [3] = tested on: B16 melanoma; experiment: Scintillation imaging, C57 BL6 mice bearing B16; details: ^123 I label
# From the text: The mice bearing grafted tumors are anesthetized by the i.p. injection of sodium pentobarbital 1/5 and immobilized under a scintillation camera (Gammatome II, CGR) equipped with a pinhole 3-360 collimator, sensitivity 3.2 10^-4.
# C57 BL6 bearing B16 melanomas at different stages of development.
# The scanning observations have also been carried out after the injection of B into the following mice:
# C57 BL6 bearing the B16 melanoma
# [4] = intestine, read-out: intestine % ID/g
# [5] = kidney, read-out: kidney % ID/g
# [6] = muscle, read-out: muscle % ID/g
# [7] = pancreas, read-out: pancreas % ID/g
# [8] = plasma, read-out: plasma % ID/g
# [9] = spleen, read-out: spleen % ID/g
# [10] = stomach, read-out: stomach % ID/g
# [11] = submaxillary glands, read-out: submaxillary glands % ID/g
structure (smiles),measurement,setting,value
"CCN(CC)CCNC(=O)c1ccc(I)cc1 [Derivative A, N-(2-diethylaminoethyl) 4-iodo benzamide]",tissue uptake at 1 h,"[1]; blood, read-out: blood % ID/g",1.04 %ID/g
same,tissue uptake at 2 h,"[1]; blood, read-out: blood % ID/g",0.74 %ID/g
same,tissue uptake at 4 h,"[1]; blood, read-out: blood % ID/g",0.54 %ID/g
same,tissue uptake at 6 h,"[1]; blood, 6 h, read-out: blood % ID/g",0.21 %ID/g
same,tissue uptake at 24 h,"[1]; blood, read-out: blood % ID/g",0.022 %ID/g
same,tissue uptake at 8 h,"[1]; blood, 8 h, read-out: blood % ID/g",0.34 %ID/g
same,tissue uptake at 12 h,"[1]; blood, read-out: blood % ID/g",0.09 %ID/g
same,tissue uptake at 1 h,"[1]; brain, read-out: brain % ID/g",2.67 %ID/g
same,tissue uptake at 2 h,"[1]; brain, read-out: brain % ID/g",1.4 %ID/g
same,tissue uptake at 4 h,"[1]; brain, read-out: brain % ID/g",0.7 %ID/g
same,tissue uptake at 6 h,"[1]; brain, 6 h, read-out: brain % ID/g",0.32 %ID/g
same,tissue uptake at 24 h,"[1]; brain, read-out: brain % ID/g",0.005 %ID/g
same,tissue uptake at 8 h,"[1]; brain, 8 h, read-out: brain % ID/g",0.18 %ID/g
same,tissue uptake at 12 h,"[1]; brain, read-out: brain % ID/g",0.04 %ID/g
same,tissue uptake at 1 h,"[1]; eye, read-out: eye % ID/g",13.6 %ID/g
same,tissue uptake at 2 h,"[1]; eye, read-out: eye % ID/g",13 %ID/g
same,tissue uptake at 4 h,"[1]; eye, read-out: eye % ID/g",12.4 %ID/g
same,tissue uptake at 6 h,"[1]; eye, 6 h, read-out: eye % ID/g",12.1 %ID/g
same,tissue uptake at 24 h,"[1]; eye, read-out: eye % ID/g",6.65 %ID/g
same,tissue uptake at 8 h,"[1]; eye, 8 h, read-out: eye % ID/g",8.07 %ID/g
same,tissue uptake at 12 h,"[1]; eye, read-out: eye % ID/g",8.49 %ID/g
same,tissue uptake at 1 h,[1]; [4],5.22 %ID/g
same,tissue uptake at 2 h,[1]; [4],3.94 %ID/g
same,tissue uptake at 4 h,[1]; [4],2.8 %ID/g
same,tissue uptake at 6 h,"[1]; intestine, 6 h, read-out: intestine % ID/g",0.75 %ID/g
same,tissue uptake at 8 h,"[1]; intestine, 8 h, read-out: intestine % ID/g",0.71 %ID/g
same,tissue uptake at 12 h,[1]; [4],0.14 %ID/g
same,tissue uptake at 24 h,[1]; [4],0.02 %ID/g
same,tissue uptake at 1 h,[1]; [5],8.56 %ID/g
same,tissue uptake at 2 h,[1]; [5],5.93 %ID/g
same,tissue uptake at 4 h,[1]; [5],3.67 %ID/g
same,tissue uptake at 6 h,"[1]; kidney, 6 h, read-out: kidney % ID/g",1.1 %ID/g
same,tissue uptake at 24 h,[1]; [5],0.07 %ID/g
same,tissue uptake at 8 h,"[1]; kidney, 8 h, read-out: kidney % ID/g",0.84 %ID/g
same,tissue uptake at 12 h,[1]; [5],0.19 %ID/g
same,tissue uptake at 1 h,"[1]; liver, read-out: liver % ID/g",6.04 %ID/g
same,tissue uptake at 2 h,"[1]; liver, read-out: liver % ID/g",4.02 %ID/g
same,tissue uptake at 4 h,"[1]; liver, read-out: liver % ID/g",2.46 %ID/g
same,tissue uptake at 6 h,"[1]; liver, 6 h, read-out: liver % ID/g",0.95 %ID/g
same,tissue uptake at 24 h,"[1]; liver, read-out: liver % ID/g",0.16 %ID/g
same,tissue uptake at 8 h,"[1]; liver, 8 h, read-out: liver % ID/g",0.8 %ID/g
same,tissue uptake at 12 h,"[1]; liver, read-out: liver % ID/g",0.25 %ID/g
same,tissue uptake at 1 h,"[1]; lung, read-out: lungs % ID/g",11 %ID/g
same,tissue uptake at 2 h,"[1]; lung, read-out: lungs % ID/g",6.12 %ID/g
same,tissue uptake at 4 h,"[1]; lung, read-out: lungs % ID/g",4.29 %ID/g
same,tissue uptake at 6 h,"[1]; lung, 6 h, read-out: lungs % ID/g",1.99 %ID/g
same,tissue uptake at 8 h,"[1]; lung, 8 h, read-out: lungs % ID/g",1.11 %ID/g
same,tissue uptake at 12 h,"[1]; lung, read-out: lungs % ID/g",0.2 %ID/g
same,tissue uptake at 24 h,"[1]; lung, read-out: lungs % ID/g",0.05 %ID/g
same,tissue uptake at 6 h,"[1]; lung, as from the 6th hour, mice bearing melanic melanomas, read-out: pulmonary binding",< 1 %ID/g
same,tissue uptake at 1 h,[1]; [6],1.55 %ID/g
same,tissue uptake at 2 h,[1]; [6],1.13 %ID/g
same,tissue uptake at 4 h,[1]; [6],0.66 %ID/g
same,tissue uptake at 6 h,"[1]; muscle, 6 h, read-out: muscle % ID/g",0.19 %ID/g
same,tissue uptake at 24 h,[1]; [6],0.009 %ID/g
same,tissue uptake at 8 h,"[1]; muscle, 8 h, read-out: muscle % ID/g",0.14 %ID/g
same,tissue uptake at 12 h,[1]; [6],0.03 %ID/g
same,tissue uptake at 1 h,[1]; [7],5.34 %ID/g
same,tissue uptake at 2 h,[1]; [7],3.42 %ID/g
same,tissue uptake at 4 h,[1]; [7],2.01 %ID/g
same,tissue uptake at 6 h,"[1]; pancreas, 6 h, read-out: pancreas % ID/g",0.55 %ID/g
same,tissue uptake at 8 h,"[1]; pancreas, 8 h, read-out: pancreas % ID/g",0.41 %ID/g
same,tissue uptake at 12 h,[1]; [7],0.13 %ID/g
same,tissue uptake at 24 h,[1]; [7],0.04 %ID/g
same,tissue uptake at 1 h,[1]; [8],0.82 %ID/g
same,tissue uptake at 2 h,[1]; [8],0.55 %ID/g
same,tissue uptake at 4 h,[1]; [8],0.45 %ID/g
same,tissue uptake at 6 h,"[1]; plasma, 6 h, read-out: plasma % ID/g",0.21 %ID/g
same,tissue uptake at 24 h,[1]; [8],0.024 %ID/g
same,tissue uptake at 8 h,"[1]; plasma, 8 h, read-out: plasma % ID/g",0.38 %ID/g
same,tissue uptake at 12 h,[1]; [8],0.11 %ID/g
same,tissue uptake at 1 h,[1]; [9],5.91 %ID/g
same,tissue uptake at 2 h,[1]; [9],2.94 %ID/g
same,tissue uptake at 4 h,[1]; [9],1.36 %ID/g
same,tissue uptake at 6 h,"[1]; spleen, 6 h, read-out: spleen % ID/g",0.56 %ID/g
same,tissue uptake at 8 h,"[1]; spleen, 8 h, read-out: spleen % ID/g",0.46 %ID/g
same,tissue uptake at 12 h,[1]; [9],0.16 %ID/g
same,tissue uptake at 24 h,[1]; [9],0.02 %ID/g
same,tissue uptake at 1 h,[1]; [10],6.03 %ID/g
same,tissue uptake at 2 h,[1]; [10],3.87 %ID/g
same,tissue uptake at 4 h,[1]; [10],2.35 %ID/g
same,tissue uptake at 6 h,"[1]; stomach, 6 h, read-out: stomach % ID/g",1.14 %ID/g
same,tissue uptake at 8 h,"[1]; stomach, 8 h, read-out: stomach % ID/g",1.65 %ID/g
same,tissue uptake at 12 h,[1]; [10],0.19 %ID/g
same,tissue uptake at 24 h,[1]; [10],0.07 %ID/g
same,tissue uptake at 1 h,[1]; [11],6.06 %ID/g
same,tissue uptake at 2 h,[1]; [11],3.6 %ID/g
same,tissue uptake at 4 h,[1]; [11],3.68 %ID/g
same,tissue uptake at 6 h,"[1]; submaxillary glands, 6 h, read-out: submaxillary glands % ID/g",1.12 %ID/g
same,tissue uptake at 8 h,"[1]; submaxillary glands, 8 h, read-out: submaxillary glands % ID/g",0.98 %ID/g
same,tissue uptake at 12 h,[1]; [11],0.44 %ID/g
same,tissue uptake at 24 h,[1]; [11],0.09 %ID/g
same,tissue uptake at 1 h,"[1]; tumor, read-out: tumor % ID/g",6.75 %ID/g
same,tissue uptake at 2 h,"[1]; tumor, read-out: tumor % ID/g",6.04 %ID/g
same,tissue uptake at 4 h,"[1]; tumor, read-out: tumor % ID/g",4.82 %ID/g
same,tissue uptake at 6 h,"[1]; tumor, 6 h, read-out: tumor % ID/g",3.53 %ID/g
same,tissue uptake at 24 h,"[1]; tumor, read-out: tumor % ID/g",0.79 %ID/g
same,tissue uptake at 8 h,"[1]; tumor, up to 8 hours, B16, read-out: intratumoral concentration",> 1 %ID/g
same,tissue uptake at 8 h,"[1]; tumor, 8 h, read-out: tumor % ID/g",3.42 %ID/g
same,tissue uptake at 12 h,"[1]; tumor, read-out: tumor % ID/g",1.01 %ID/g
same,marker of the B16 murine melanoma,[2],markers of the B16 murine melanoma
same,images compared with ^125 I-A,[3],identical images
